Measured values published in ChEMBL document CHEMBL1201862, “PubChem BioAssay data set” (2004).
Blank lines part the entries; values can stand above or below the compound they belong to. The source made the active and inactive calls.

Assays:
[1] = biological target: T1, High affinity choline transporter 1 (Homo sapiens, UniProt Q9GZV3); experiment: human choline transporter blockers, potency – cell-based, 5-point CRC, membrane potential dye, dose response (AID 504840); assay type: functional
T1 sequence (Q9GZV3 whole entry): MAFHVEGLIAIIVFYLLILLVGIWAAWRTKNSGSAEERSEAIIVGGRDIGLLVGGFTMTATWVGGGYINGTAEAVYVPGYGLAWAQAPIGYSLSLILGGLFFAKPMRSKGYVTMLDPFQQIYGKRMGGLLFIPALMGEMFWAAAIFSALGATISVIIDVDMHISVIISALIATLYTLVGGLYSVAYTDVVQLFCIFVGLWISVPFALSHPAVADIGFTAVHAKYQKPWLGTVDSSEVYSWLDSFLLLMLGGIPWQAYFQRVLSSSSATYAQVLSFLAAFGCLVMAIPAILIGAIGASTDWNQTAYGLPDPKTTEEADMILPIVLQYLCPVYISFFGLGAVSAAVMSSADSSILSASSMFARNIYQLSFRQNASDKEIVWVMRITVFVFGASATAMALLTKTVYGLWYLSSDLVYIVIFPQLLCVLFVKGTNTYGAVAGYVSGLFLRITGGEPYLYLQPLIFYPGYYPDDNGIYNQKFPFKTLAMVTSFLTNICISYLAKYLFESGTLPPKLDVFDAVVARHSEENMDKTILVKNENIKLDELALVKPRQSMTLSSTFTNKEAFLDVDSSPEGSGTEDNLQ

Protein skinhead-1 = biological target: T2, Protein skinhead-1 (Caenorhabditis elegans, UniProt P34707); assay type: functional
T2 sequence (P34707 whole entry): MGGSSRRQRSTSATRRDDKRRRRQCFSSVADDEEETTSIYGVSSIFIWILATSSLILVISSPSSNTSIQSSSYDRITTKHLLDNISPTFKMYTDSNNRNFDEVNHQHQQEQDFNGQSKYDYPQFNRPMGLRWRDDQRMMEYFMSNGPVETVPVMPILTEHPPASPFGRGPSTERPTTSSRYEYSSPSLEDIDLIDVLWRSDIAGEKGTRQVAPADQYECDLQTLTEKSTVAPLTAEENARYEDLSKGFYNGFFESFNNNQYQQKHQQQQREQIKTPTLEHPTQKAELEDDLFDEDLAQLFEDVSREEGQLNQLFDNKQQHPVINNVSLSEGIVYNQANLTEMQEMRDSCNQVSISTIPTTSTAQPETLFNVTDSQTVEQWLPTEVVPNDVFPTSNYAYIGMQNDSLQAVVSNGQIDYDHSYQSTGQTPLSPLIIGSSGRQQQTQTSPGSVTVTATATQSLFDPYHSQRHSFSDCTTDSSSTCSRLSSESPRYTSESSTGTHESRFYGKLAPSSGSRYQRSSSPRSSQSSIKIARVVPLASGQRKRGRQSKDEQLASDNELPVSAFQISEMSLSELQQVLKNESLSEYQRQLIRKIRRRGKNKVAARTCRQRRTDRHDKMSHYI

Fatty acid synthase [2] = biological target: T3, Fatty acid synthase (Homo sapiens, UniProt P49327); experiment: inhibition of human FAS-TE enzyme activity – biochemical, kinetic fluorescence intensity, dose response (AID 624326); assay type: functional;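 also: rate of fluorescence rise from hydrolysis of a fluorogenic O-methyl fluorescein ester substrate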
T3 sequence (P49327 whole entry): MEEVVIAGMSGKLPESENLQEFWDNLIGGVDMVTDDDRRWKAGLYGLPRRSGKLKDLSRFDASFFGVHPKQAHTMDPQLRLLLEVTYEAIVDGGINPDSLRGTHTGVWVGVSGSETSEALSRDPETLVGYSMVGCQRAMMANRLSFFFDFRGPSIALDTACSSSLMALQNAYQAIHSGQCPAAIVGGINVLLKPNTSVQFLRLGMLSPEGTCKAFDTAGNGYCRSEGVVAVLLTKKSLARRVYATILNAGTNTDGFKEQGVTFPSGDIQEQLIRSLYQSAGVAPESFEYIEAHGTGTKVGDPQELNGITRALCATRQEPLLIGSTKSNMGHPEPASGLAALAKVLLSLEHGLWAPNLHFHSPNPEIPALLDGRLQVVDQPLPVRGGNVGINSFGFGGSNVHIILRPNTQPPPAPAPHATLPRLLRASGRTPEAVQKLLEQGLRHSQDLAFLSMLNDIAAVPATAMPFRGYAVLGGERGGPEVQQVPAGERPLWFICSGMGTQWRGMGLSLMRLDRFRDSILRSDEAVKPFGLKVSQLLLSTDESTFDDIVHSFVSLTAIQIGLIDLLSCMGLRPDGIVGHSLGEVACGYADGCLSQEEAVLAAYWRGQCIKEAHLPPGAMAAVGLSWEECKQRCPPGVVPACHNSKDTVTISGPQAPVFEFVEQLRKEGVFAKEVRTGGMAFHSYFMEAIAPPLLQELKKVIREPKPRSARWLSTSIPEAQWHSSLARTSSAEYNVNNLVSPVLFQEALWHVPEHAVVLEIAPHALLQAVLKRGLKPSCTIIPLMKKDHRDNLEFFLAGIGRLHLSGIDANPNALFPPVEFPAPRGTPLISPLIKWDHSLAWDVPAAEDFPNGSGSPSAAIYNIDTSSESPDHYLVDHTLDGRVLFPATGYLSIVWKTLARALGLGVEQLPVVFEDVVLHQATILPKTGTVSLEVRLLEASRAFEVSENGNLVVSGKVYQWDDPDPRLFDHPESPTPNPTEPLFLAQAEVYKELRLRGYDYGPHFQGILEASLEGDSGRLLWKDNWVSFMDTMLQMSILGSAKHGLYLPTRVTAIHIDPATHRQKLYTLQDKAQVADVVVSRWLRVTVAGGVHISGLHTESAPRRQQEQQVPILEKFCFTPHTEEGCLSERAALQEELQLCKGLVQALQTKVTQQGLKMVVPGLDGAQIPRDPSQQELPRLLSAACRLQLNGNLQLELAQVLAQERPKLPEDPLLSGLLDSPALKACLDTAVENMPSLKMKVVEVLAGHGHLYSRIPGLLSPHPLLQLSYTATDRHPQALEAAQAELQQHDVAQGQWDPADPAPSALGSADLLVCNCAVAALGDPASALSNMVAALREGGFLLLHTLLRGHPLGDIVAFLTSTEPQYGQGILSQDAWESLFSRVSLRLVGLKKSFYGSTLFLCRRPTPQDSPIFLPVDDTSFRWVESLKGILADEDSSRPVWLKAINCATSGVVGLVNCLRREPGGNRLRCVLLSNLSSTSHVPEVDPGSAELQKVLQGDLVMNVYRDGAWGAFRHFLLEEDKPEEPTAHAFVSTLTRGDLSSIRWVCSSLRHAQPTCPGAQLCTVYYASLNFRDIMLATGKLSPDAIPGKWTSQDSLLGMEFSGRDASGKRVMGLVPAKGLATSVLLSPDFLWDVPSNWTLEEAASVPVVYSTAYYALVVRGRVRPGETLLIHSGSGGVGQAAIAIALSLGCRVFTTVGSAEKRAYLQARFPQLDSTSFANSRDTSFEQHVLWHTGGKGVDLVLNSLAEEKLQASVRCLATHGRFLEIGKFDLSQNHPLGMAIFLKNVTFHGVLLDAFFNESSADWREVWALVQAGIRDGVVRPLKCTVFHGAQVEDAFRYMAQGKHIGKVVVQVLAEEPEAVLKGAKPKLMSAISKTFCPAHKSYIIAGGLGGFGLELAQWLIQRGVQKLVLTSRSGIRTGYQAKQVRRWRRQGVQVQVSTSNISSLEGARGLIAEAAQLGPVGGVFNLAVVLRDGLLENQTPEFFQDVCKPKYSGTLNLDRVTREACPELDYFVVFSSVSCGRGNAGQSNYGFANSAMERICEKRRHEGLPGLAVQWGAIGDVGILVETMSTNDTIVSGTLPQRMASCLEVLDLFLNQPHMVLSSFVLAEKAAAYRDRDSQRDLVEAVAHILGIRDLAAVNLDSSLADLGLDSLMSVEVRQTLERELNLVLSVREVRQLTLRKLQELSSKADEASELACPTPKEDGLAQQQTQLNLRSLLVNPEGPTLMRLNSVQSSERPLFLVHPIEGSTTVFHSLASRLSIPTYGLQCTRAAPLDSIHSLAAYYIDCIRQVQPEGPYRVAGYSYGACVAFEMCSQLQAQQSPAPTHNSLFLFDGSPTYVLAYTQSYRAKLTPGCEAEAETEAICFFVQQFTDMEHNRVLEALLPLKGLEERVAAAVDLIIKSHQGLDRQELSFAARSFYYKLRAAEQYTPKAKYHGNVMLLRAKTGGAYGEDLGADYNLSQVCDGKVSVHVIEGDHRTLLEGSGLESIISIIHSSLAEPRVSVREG

Fatty acid synthase [3] = biological target: T3, Fatty acid synthase; experiment: inhibition of human FAS-TE enzyme activity – biochemical, endpoint fluorescence intensity, uHTS hits, dose response (AID 624327); assay type: functional;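 also: fluorescence from hydrolysis of an O-methyl fluorescein acyl ester substrate by the enzyme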
Large T antigen = Large T antigen (Simian virus 40, UniProt P03070); assay type: functional, Betapolyomavirus macacae;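 also: Confirmatory-stage PubChem screen for compounds that inhibit SV40 T antigen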
Large T antigen, sequence (P03070 whole entry): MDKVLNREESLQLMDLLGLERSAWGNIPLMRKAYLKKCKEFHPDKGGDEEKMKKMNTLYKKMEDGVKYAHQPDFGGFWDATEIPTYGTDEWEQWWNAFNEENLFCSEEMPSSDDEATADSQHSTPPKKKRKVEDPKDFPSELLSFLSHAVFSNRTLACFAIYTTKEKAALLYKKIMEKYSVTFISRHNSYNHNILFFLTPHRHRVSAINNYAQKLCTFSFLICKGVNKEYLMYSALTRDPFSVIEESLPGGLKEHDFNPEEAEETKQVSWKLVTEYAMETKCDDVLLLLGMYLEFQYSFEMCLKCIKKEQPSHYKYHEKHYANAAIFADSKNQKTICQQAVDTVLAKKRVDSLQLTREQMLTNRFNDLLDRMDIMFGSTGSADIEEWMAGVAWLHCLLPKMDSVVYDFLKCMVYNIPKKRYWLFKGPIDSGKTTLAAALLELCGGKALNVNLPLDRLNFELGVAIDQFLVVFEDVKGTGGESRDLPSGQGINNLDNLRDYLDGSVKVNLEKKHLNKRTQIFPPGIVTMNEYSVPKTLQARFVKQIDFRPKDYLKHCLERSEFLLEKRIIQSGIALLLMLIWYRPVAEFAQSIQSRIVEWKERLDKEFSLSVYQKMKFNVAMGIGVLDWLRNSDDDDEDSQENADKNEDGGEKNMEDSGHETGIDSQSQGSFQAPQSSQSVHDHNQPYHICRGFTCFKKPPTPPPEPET

Cytochrome P450 2D6 = Cytochrome P450 2D6 (Homo sapiens, UniProt P10635);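 also: CYP2D6 member of a cytochrome P450 panel assay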
Cytochrome P450 2D6, sequence (P10635 whole entry): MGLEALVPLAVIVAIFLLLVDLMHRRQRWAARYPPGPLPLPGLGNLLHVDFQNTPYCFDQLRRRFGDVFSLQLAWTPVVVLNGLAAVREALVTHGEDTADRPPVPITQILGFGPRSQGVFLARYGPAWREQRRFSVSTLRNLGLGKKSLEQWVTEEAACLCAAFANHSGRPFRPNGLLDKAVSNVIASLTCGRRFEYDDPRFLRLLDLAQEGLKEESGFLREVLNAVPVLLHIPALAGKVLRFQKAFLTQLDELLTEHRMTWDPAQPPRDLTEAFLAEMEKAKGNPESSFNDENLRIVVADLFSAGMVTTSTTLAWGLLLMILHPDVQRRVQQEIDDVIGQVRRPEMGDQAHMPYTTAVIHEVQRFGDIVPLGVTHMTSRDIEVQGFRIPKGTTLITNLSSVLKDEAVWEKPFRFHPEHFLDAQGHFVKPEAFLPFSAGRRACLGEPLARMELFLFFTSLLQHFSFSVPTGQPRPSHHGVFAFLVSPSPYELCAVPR

Coagulation factor XII = biological target: T4, Coagulation factor XII (Homo sapiens, UniProt P00748); assay type: functional;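 also: activated factor XIIa alpha cleaving a fluorogenic AMC peptide substrate; inhibitor potency from loss of enzyme activity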
T4 sequence (P00748 whole entry): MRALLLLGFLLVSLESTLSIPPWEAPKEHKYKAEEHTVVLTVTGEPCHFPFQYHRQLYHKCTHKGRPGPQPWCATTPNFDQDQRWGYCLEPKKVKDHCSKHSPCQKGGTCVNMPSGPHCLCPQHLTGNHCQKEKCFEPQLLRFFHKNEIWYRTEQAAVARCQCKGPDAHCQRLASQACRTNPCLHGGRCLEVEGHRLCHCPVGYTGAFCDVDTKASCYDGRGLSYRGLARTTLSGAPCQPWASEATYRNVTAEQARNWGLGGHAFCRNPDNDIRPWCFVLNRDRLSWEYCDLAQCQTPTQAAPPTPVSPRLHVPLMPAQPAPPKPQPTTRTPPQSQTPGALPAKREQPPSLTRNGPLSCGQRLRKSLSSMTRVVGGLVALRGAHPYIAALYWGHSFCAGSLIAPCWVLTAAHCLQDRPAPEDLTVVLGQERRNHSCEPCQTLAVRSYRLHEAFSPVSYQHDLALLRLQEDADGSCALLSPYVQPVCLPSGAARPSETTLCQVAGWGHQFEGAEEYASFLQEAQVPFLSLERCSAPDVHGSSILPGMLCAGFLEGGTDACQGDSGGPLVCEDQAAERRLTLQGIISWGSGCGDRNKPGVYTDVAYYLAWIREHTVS

[4] = biological target: T5, Corticotropin-releasing factor receptor 2/Corticotropin-releasing factor-binding protein (Homo sapiens, UniProt P24387+Q13324); experiment: Dose Response confirmation of uHTS hits for small molecule antagonists of the CRF-binding protein and CRF-R2 receptor complex.; assay type: functional; conditions: read-out: IC50_Mean
T5 sequence (Q13324 whole entry): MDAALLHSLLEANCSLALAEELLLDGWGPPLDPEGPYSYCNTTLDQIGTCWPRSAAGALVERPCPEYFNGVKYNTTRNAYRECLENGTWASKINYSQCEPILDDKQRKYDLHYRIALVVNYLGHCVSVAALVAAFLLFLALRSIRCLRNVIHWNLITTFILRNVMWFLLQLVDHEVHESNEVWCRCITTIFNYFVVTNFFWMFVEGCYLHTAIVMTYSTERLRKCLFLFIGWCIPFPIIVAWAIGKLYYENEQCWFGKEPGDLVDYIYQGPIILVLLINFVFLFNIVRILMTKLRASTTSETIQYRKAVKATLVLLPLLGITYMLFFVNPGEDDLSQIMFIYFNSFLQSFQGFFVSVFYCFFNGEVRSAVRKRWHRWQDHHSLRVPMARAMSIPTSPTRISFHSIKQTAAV
T5 sequence (P24387 whole entry): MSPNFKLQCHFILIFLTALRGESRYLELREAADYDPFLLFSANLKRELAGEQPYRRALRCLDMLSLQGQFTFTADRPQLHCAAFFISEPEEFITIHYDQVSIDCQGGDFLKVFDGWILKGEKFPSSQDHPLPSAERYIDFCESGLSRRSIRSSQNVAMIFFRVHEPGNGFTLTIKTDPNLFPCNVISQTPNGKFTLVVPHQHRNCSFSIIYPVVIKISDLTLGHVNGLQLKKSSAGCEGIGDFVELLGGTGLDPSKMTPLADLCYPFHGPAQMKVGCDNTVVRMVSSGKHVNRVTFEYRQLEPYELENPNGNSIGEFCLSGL

[5] = biological target: T5, Corticotropin-releasing factor receptor 2/Corticotropin-releasing factor-binding protein; experiment: activators of CRF receptor 2 with binding protein – uHTS hits, confirmation (AID 602473); assay type: functional; conditions: read-out: EC50_Mean
[6] = biological target: Eukaryotic translation initiation factor 4E (Mus musculus, UniProt P63073); experiment: blockers of eIF4G binding by eIF4E – biochemical, TR-FRET, dose response (AID 855); assay type: functional;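 also: potency for disrupting eIF4E binding to eIF4GI seen as loss of FRET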
Eukaryotic translation initiation factor 4E, sequence (P63073 whole entry): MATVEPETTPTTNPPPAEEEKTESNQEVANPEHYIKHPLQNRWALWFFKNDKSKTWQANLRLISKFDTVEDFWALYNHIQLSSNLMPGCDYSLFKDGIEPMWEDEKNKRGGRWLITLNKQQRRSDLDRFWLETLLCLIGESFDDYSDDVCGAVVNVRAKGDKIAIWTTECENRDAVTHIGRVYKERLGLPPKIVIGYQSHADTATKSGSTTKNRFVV

IC50 (Fatty acid synthase [2]): 2.86 µM (active) | IC50 (Fatty acid synthase [3]): 4.75 µM (active)
SMILES: O=C(Nc1cc([N+](=O)[O-])ccc1Cl)C(Sc1ccccc1)c1ccccc1 (stereo not drawn)

IC50 (Large T antigen): 14.5 µM (active) | AC50 (Cytochrome P450 2D6): 17.8 µM (inconclusive)
SMILES: Nc1ccc(-c2sc(N)nc2-c2ccccc2)cc1

IC50 [1]: 10.7 µM (active)
SMILES: CC(C)CN1CCC(Oc2cccc(C(=O)NCCc3ccccc3)c2)CC1

IC50 [4]: > 47.1 µM (inactive) | EC50 [5]: > 53 µM (inactive) | IC50 [6]: > 64 µM (inactive)
SMILES: Brc1cccc(C2CC(c3ccccc3)n3nnnc3N2)c1 (stereo not drawn)

Continued, compound first:

SMILES: CCN(CC)CCCCCCCCOC(=O)c1cc(OC)c(OC)c(OC)c1
IC50 [1]: 15.1 µM (active)

SMILES: O=[N+]([O-])c1cccc(S(=O)(=O)Nc2ccc(Cc3ccncc3)cc2)c1
IC50 [1]: 10.5 µM (active)

SMILES: O=C(NCCc1ccccc1)c1ccc2c(=O)[nH]c3c(C(=O)NCC4CCCO4)sc(=S)n3c2c1 (stereo not drawn)
IC50 [1]: 16.6 µM (active)

SMILES: O=C(c1cccc(Cl)c1)N(Cc1cccs1)C1CCS(=O)(=O)C1 (stereo not drawn)
IC50 (Protein skinhead-1): > 100 µM (inactive)

SMILES: CCCCCOC(=O)c1ccc(N2C(=O)C3C4C=CC(C4)C3C2=O)cc1 (stereo not drawn)
IC50 (Fatty acid synthase [2]): 2.43 µM (active) | IC50 (Fatty acid synthase [3]): 2.93 µM (active)

SMILES: C=CCOc1c(CNc2ccc3[nH]c(O)nc3c2)cccc1OC
IC50 (Large T antigen): 96.9 µM (active)

SMILES: CSC1=NSC2=NC(=O)/C(=C\c3c(C)[nH]c4ccc(C)cc34)C(=N)N12
IC50 (Coagulation factor XII): > 50 µM (inactive)

SMILES: CCOc1ccc2nc(O)c(C(c3nnnn3C3CCCCC3)N3CCN(C)CC3)cc2c1 (stereo not drawn)
IC50 (Coagulation factor XII): > 50 µM (inactive)

SMILES: CCOc1ccccc1NC(=O)C(CC(C)C)NC(=O)C1CCC(C)CC1 (stereo not drawn)
IC50 (Protein skinhead-1): > 100 µM (inactive)
